These results are taken from US10576064B2, “Spiro[3H-indole-3,2′-pyrrolidin]-2(1H)-one compounds and derivatives as MDM2-P53 inhibitors” (Boehringer Ingelheim International GmbH, priority 2014, dated 2020).

The assay deals with p53-MDM2 interaction (GST-MDM2 protein aa 23-117 / biotinylated p53 wt peptide) (Homo sapiens (Human), UniProt Q00987). Put plainly: MDM2-p53 Inhibition AlphaScreen. Format: biochemical. The following applies: 20 nM GST-MDM2 (aa 23-117), 20 nM biotinylated p53 wt peptide. From the text:
MDM2-p53 Inhibition AlphaScreen
Background: In Alpha technology, singlet oxygen from a donor bead excites a nearby acceptor bead.
In the case of `CCOc1cccc(CN2[C@H]3CCN(c4ccc(C(=O)O)cc4[N+](=O)[O-])C(=O)[C@H]3[C@H](c3cccc(Cl)c3F)[C@]23C(=O)Nc2cc(Cl)ccc23)c1` [Compound I-188], 16 nM corresponded to half-maximal inhibition (IC50).
`O=C(O)c1ccc(CN2C[C@H]3[C@@H](C2=O)[C@H](c2cccc(Cl)c2F)[C@]2(C(=O)Nc4cc(Cl)ccc42)N3CC2CC2)cc1` [Compound I-242] showed an IC50 of 37 nM.
In turn, `O=C(O)c1ccc(N2C[C@@H]3[C@H](C2=O)[C@@H](c2cccc(Cl)c2F)[C@@]2(C(=O)Nc4cc(Cl)ccc42)N3CC2CC2)cc1` [Compound I-218] returned an IC50 of 460 nM.
As for `O=C1OCC[C@H]2[C@@H]1[C@H](c1cccc(Cl)c1F)[C@]1(C(=O)Nc3cc(Cl)ccc31)N2CC1CC1` [Compound I-37], inhibition was half-maximal at 292 nM (IC50).
As to `CC1CC1CN1[C@H]2CCN(c3ccc(C(=O)O)cc3F)C(=O)[C@H]2[C@H](c2cccc(Cl)c2F)[C@]12C(=O)Nc1cc(Cl)ccc12` (stereo partly shown) [Compound I-190], the IC50 came out at 45 nM.
As to `O=C1[C@@H]2[C@H](CCN1c1ccncc1)N(CC1CC1)[C@@]1(C(=O)Nc3cc(Cl)ccc31)[C@H]2c1cccc(Cl)c1F` [Compound I-92], the IC50 was found to be 193 nM.
Next, `COC(=O)c1ccc(N2C[C@H]3[C@@H](C2=O)[C@H](c2cccc(Cl)c2F)[C@]2(C(=O)Nc4cc(Cl)ccc42)N3CC2CC2)c(OC)c1` [Compound I-125]: 347 nM; `COC(=O)c1ccc(N2C[C@H]3[C@@H](C2=O)[C@H](c2cccc(Cl)c2F)[C@]2(C(=O)Nc4cc(Cl)ccc42)N3CC2CC2)cc1` [Compound I-123]: 38 nM; `O=C(O)c1ccc(N2C[C@H]3[C@@H](C2=O)[C@H](c2cccc(Cl)c2F)[C@]2(C(=O)Nc4cc(Cl)ccc42)N3CC2CCC2)cc1` [Compound I-221]: 7 nM.
`COc1cccc(CN2[C@H]3CCN(Cc4ccc(C(=O)O)cc4)C(=O)[C@H]3[C@H](c3cccc(Cl)c3F)[C@]23C(=O)Nc2cc(Cl)ccc23)c1` [Compound I-214] gave an IC50 of 34 nM.
`O=C(O)CNc1ccc(N2CC[C@H]3[C@@H](C2=O)[C@H](c2cccc(Cl)c2F)[C@]2(C(=O)Nc4cc(Cl)ccc42)N3CC2CC2)cc1` [Compound I-306]: the IC50 is 67 nM.
As for `COc1cc(C(=O)O)ccc1N1C[C@H]2[C@@H](C1=O)[C@H](c1cccc(Cl)c1F)[C@]1(C(=O)Nc3cc(Cl)ccc31)N2CC1CC1` [Compound I-219], the figure is 31 nM; as for `O=C(O)c1ccc(N2CC[C@H]3[C@@H](C2=O)[C@H](c2cccc(Cl)c2F)[C@]2(C(=O)Nc4cc(Cl)ccc42)N3CC2CC2)c([N+](=O)[O-])c1` [Compound I-192], 40 nM; as for `COC(=O)c1ccc(N2CC[C@H]3[C@@H](C2=O)[C@H](c2cccc(Cl)c2F)[C@]2(C(=O)Nc4cc(Cl)ccc42)N3CC2CC2C)cc1` (stereo partly shown) [Compound I-69], 447 nM.
`O=C(O)c1ccc(N2C[C@@H]3[C@H](C2=O)[C@@H](c2cccc(Cl)c2F)[C@@]2(C(=O)Nc4cc(Cl)ccc42)N3CC2CCC2)cc1` [Compound I-223] gave a 50% inhibitory concentration (IC50) of 271 nM.
Take `O=C(O)c1ccc(N2CC[C@H]3[C@@H](C2=O)[C@H](c2cccc(Cl)c2)[C@]2(C(=O)Nc4cc(Cl)ccc42)N3CC2CC2)cc1` [Compound I-177]: half-maximal inhibition (IC50) was put at 16 nM.
Next, `COc1cc(N2C[C@H]3[C@@H](C2=O)[C@H](c2cccc(Cl)c2F)[C@]2(C(=O)Nc4cc(Cl)ccc42)N3CC2CC2)ccc1C(=O)O` [Compound I-258]: 4 nM; `O=C1NC[C@H]2[C@@H]1[C@H](c1cccc(Cl)c1F)[C@]1(C(=O)Nc3cc(Cl)ccc31)N2CC1CC1` [Compound I-39]: 32 nM.
For `O=C(O)c1ccc(N2C[C@@H]3[C@H](C2=O)[C@@H](c2cccc(Cl)c2F)[C@@]2(C(=O)Nc4cc(Cl)ccc42)N3CC2CCCC2)cc1` [Compound I-236], the IC50 is 488 nM.
`O=C(O)c1ccc(N2CC[C@H]3[C@@H](C2=O)[C@H](c2cccc(Cl)c2F)[C@]2(C(=O)Nc4cc(Cl)ccc42)N3CC2CC2)c(O)c1` [Compound I-264] gave a 50% inhibitory concentration (IC50) of 49 nM.
`O=C1NCC[C@H]2[C@@H]1[C@H](c1cccc(Cl)c1)[C@]1(C(=O)Nc3cc(Cl)ccc31)N2CC1CC1` [Compound I-3]: the IC50 is 263 nM.
Compound `CCOc1cccc(CN2[C@H]3CN(c4ccc(C(N)=O)cc4)C(=O)[C@H]3[C@H](c3cccc(Cl)c3F)[C@]23C(=O)Nc2cc(Cl)ccc23)c1` [Compound I-284] came in with a half-inhibitory concentration (IC50) of 3 nM.
`CC(C)(C)CN1[C@H]2CN(c3ccc(C(=O)O)cc3)C(=O)[C@H]2[C@H](c2cccc(Cl)c2F)[C@]12C(=O)Nc1cc(Cl)ccc12` [Compound I-228] registered an IC50 of 11 nM.
Take `O=C(O)c1ccc(N2C[C@H]3[C@@H](C2=O)[C@H](c2cccc(Cl)c2F)[C@]2(C(=O)Nc4cc(Cl)ccc42)N3CC2CC2)cc1OC(F)(F)F` [Compound I-259]: the IC50 came out at 11 nM.
The compound `CC(C)(C)CN1[C@H]2CCN(c3ccc(C(=O)O)cc3)C(=O)[C@H]2[C@H](c2cccc(Cl)c2F)[C@]12C(=O)Nc1cc(Cl)ccc12` [Compound I-202] registered an IC50 of 48 nM.
As for `O=C1NCC[C@H]2[C@@H]1[C@H](c1cccc(Cl)c1F)[C@]1(C(=O)Nc3cc(I)ccc31)N2CC1CC1` [Compound I-25], the figure is 324 nM.
As for `COCc1cc(N2CC[C@H]3[C@@H](C2=O)[C@H](c2cccc(Cl)c2F)[C@]2(C(=O)Nc4cc(Cl)ccc42)N3CC2CC2)ccn1` [Compound I-90], the figure is 124 nM; as for `O=C(O)c1ccc(N2CC[C@H]3[C@@H](C2=O)[C@H](c2cccc(Cl)c2F)[C@]2(C(=O)Nc4cc(Cl)ccc42)N3CC2CC2)cn1` [Compound I-183], 10 nM; as for `CC(C)(C)CN1[C@H]2CCN(Cc3ccc(C(=O)O)cc3)C(=O)[C@H]2[C@H](c2cccc(Cl)c2F)[C@]12C(=O)Nc1cc(Cl)ccc12` [Compound I-210], 158 nM.
Compound `O=C(O)c1ccc(N2CC[C@H]3[C@@H](C2=O)[C@H](c2cccc(Cl)c2F)[C@]2(C(=O)Nc4cc(Cl)ccc42)N3CC2CCC2)cc1` [Compound I-198] had an IC50 of 27 nM.
`Cc1ccc2c(c1)NC(=O)[C@]21[C@@H](c2cccc(Cl)c2F)[C@@H]2C(=O)NCC[C@@H]2N1CC1CC1` [Compound I-23] showed an IC50 of 290 nM.
Compound `O=C(O)c1ccc(-c2cc(Cl)c(F)c([C@H]3[C@@H]4C(=O)NCC[C@@H]4N(CC4CC4)[C@@]34C(=O)Nc3cc(Cl)ccc34)c2)cc1` [Compound I-290] yielded an IC50 of 36 nM.
`COc1cc(N2C[C@H]3[C@@H](C2=O)[C@H](c2cccc(Br)c2F)[C@]2(C(=O)Nc4cc(Cl)ccc42)N3CC2CC2)ccc1C(=O)O` [Compound I-250] yielded an IC50 of 9 nM.
Turning to `CC1CC1CN1[C@H]2CCNC(=O)[C@H]2[C@H](c2cccc(Cl)c2F)[C@]12C(=O)Nc1cc(Cl)ccc12` (stereo partly shown) [Compound I-13], the IC50 came to 272 nM.
In turn, `Cc1cc(N2C[C@H]3[C@@H](C2=O)[C@H](c2cccc(Cl)c2F)[C@]2(C(=O)Nc4cc(Cl)ccc42)N3CC2CC2)ccc1C(=O)O` [Compound I-261] gave an IC50 of 5 nM.
Compound `O=C(NO)c1ccc(N2C[C@H]3[C@@H](C2=O)[C@H](c2cccc(Cl)c2F)[C@]2(C(=O)Nc4cc(Cl)ccc42)N3CC2CC2)cc1` [Compound I-285] returned an IC50 of 8 nM.
Compound `O=C(O)c1ccc(N2C[C@H]3[C@@H](C2=O)[C@H](c2cccc(Cl)c2F)[C@]2(C(=O)Nc4cc(Cl)ccc42)N3CCC(F)(F)F)cc1` [Compound I-226] returned an IC50 of 12 nM.

A word on the IC50: it is the concentration at which inhibition is half-maximal. The low end stands for higher potency, the high end for lower potency.
